# Measured values as given in US4937232A, “Inhibition of protein kinase C by long-chain bases” (priority 1988, dated 1990).
# “And” between values parts separate entries of the source, which are not always exact repeats. Equal entries are not always repeated. “Also recorded” adds a separate entry of the source. Where two headings read alike, the source gives them in different places.
# How the values were obtained:
# [1] = tested on: phorbol ester binding site (protein kinase C) of neutrophils; assay: Cellular [3H]-phorbol dibutyrate binding in neutrophils; parameters: species or system human; conditions: 50 μM; 15 min
# Procedure: Neutrophils (1×10^8 cells/ml) were preincubated with the indicated concentration of sphinganine, palmitic acid, or ceramide for five minutes prior to the addition of 50 nM (final concentration) of [^3 H]-phorbol dibutyrate (specific activity of 8.3 Ci/mMole). The cells were incubated an additional 15 min. in a shaking waterbath at 37° C. The incubation mixtures were filtered using an Amicon filtration manifold model VFM-III and washed 5 times with 5 mls of ice-cold PBS-glucose. The filters were counted using a Beckman LS7000 scintillation counter.
# human neutrophils [2] = assay: Oxygen consumption (oxidative burst) of human neutrophils; type: cell-based; conditions: for IC50: oxidative burst, PMA activation, read-out: Concentration required for 50% inhibition
# Text: Human neutrophils were obtained by continuous flow leukapheresis from normal adults. Residual erythrocytes were removed by hypotonic lysis with a resulting purity of >95% neutrophils. Alternatively peripheral blood was obtained by phlebotomy and neutrophils were isolated by HESPAN (6% Hetastarch, 0.9% NaCl) sedimentaion of erythrocytes, centrifugation through lymphocyte separation medium (9.4% sodium diatrizoate, 6.2% Ficoll), and hypotonic lysis of residual erythrocytes. Isolated cells were resuspended in phosphate buffered saline (PBS)-glucose, containing 0.6 mM CaCl2, 2.6 mM KCl, 1.5 mM KH2 PO4, 0.5 mM MgCl2, 136 mM NaCl, 8 mM Na2 HPO4, 5.5 mM glucose.
# Oxygen consumption was measured using a Clark-type electrode with YSI model 53 oxygen monitor. Assays were conducted at 37° C. with 6.5×10^6 cells per ml with a total volume of either 2.5 ml or 4 ml. Effectors were injected into the electrode chamber using a Hamilton syringe. Initial slopes after the addition of the stimuli were used for rate calculations. For activators with a lag prior to the onset of the oxidative burst, maximal rates following the lag were used.
# HL-60 cells [3] = assay: PMA-induced adherence (attachment) of HL-60 cells; type: cell-based, human
# Procedure: (§1) Cells were centrifuged at 600 g for 3 min, and added at 1×10^5 cells per well in 12-well culture dishes. Medium, PMA, and long-chain bases (prepared as the 1:1 molar complex with fatty acid-free bovine serum albumin) at the indicated concentrations were added for a total volume of 2.0 ml. After the desired times, the cells in suspension were counted and checked for viability (trypan blue exclusion) with a hemacytometer. The attached cells were quantitated by measuring DNA content according to the method of West et al (Anal. Biochem., 147, 289-295, 1985) and by assaying for acid phosphatase according to the method of Schnyder (J. Exp. Med., 148, 434-445, 1978).
# protein kinase C [4] = assay: Triton X-100 mixed micellar assay for protein kinase C activity; type: biochemical, rat; conditions: mixed micellar assay
# Procedure: Protein kinase C was partially purified from rat brain as described by Hanrun et al (J. Biol. Chem., 260, 10043, 1985), which is hereby incorporated by reference.
# Protein kinase C was assayed with Triton X-100 mixed micelles as described by Hanrun et al, (ibid.), Sphingosine was dried down with the lipid cofactors.
# protein kinase C [5] = assay: Mixed micellar protein kinase C activity assay for lysosphingolipids (Table VI); type: biochemical; conditions: for inhibition of protein kinase C activity / IC50: 6 mol % phosphatidylserine; for inhibition of protein kinase C activity: 2 mol % sn-1,2-dioleoylglycerol, 100 μM Ca2+; for Inhibition of Protein Kinase C, concentration giving 50% inhibition, (mol %): 0.3% Triton X-100, 1 mol % = 43 μM; for IC50: 0.3% Triton X-100 mixed micelles, 2 mol % dioleoylglycerol, read-out: Inhibition of Protein Kinase C, concentration giving 50% inhibition
# Procedure: (§2) TABLE VI: Inhibition of protein kinase C activity and phorbol-dibutyrate binding by lysosphingolipids. […] The remaining two columns show the observed effects of the lysosphingolipids of protein kinase C activity and phorbol diester binding in vitro and in human platelets. Lysogangliosides were prepared from their parental gangliosides by hydrolysis in methanolic KOH esentially as described by Neuenhofer et al. in Bioch. 24, 525, 1985. During this preparation, with approximately 90-95% conversion, the N-acetate of N-acetylneuraminic acid is partially hydrolyzed. Fatty acids were partitioned into heptane after acidification of the methanolic reaction mixture. Galactosylsphingosine, glucosylsphingosine, and lactosylsphingosine were prepared as previously described for galactosylsphingosine (Radin, Lipids 9, 358, 1974) Sphingosylphosphorylcholine was prepared by hydrolysis in HCl-butanol (Kaller, Biochemische Zeitschrift 334, 451, 1961). The purity of the lyso derivatives (greater than 90%) was checked by thin layer chromatography (TLC) on silica gel H plates developed in chloroform/methanol/2N NH4 OH (65/35/9) and visualized by ninhydrin reaction for N-lyso compounds, by α-naphthol/sulfuric acid for both gangliosides and lysogangliosides,and by a phospholipid spray for sphingosylphosphorylcholine. Lysosphingolipids were quantitated by reaction of the amine group with trinitrobenzenesulfonate. Gangliosides and lysosphingolipids were also quantitated by reaction with anthrone. The lysosphingolipids were then studied for their effect on protein kinase C activity. Protein kinase C was purified to near homogeneity by the method of Wolf et al. (J. Biol. Chem. 260, 15718, 1985), and activity was measured using a mixed micellar assay (described herein). Lysosphingolipids were added directly in aqueous solution, and allowed to equilibrate with the Triton X-100 (0.3% w/v) mixed micelles containing 6 mol % phosphatidylserine and 2 mol % dioleoylglycerol. […] Phorbol-dibutyrate binding was measured in a mixed micellar assay. Lysosphingolipids inhibited phorbol-dibutyrate binding to protein kinase C in the presence of Triton X-100 mixed micelles containing 20 mol % phosphatidylserine. […] The difference is related to the higher concentration of phosphatidylserine used in the binding assay, as both activity and binding show a high cooperative dependence on phosphatidylserine, which modulates the inhibition by lysosphingolipids. Phorbol-dibutyrate binding to human platelets and 40 kDa phosphorylation in platelets were carried out as described above. Lysosphingolipids inhibited phorbol dibutyrate binding to human platelets at concentrations in the 10-50 μM range. Inhibition of 40 kDa phosphorylation occurred over the same concentration range.
# [6] = tested on: protein kinase C-induced phosphorylation of the 40 KDa polypeptide; assay: 40K (40 kDa) protein phosphorylation in human platelets; type: cell-based; conditions: concentrations less than 100 μM
# Procedure: They were then suspended in modified Tyrode's buffer to a concentration of 2.5×10^8 platelets/ml.
# ^32 Pi at 0.2 mCi/ml was added to the platelet suspension and labelling was allowed to proceed for 75 minutes at 37° C., after which the platelets were pelleted at 600×g for 10 minutes and resuspended in Tyrode's buffer to the same concentration. They were then aliquoted in Eppendorf microfuge tubes and preincubated at 37° C. for 5 minutes with the varying concentrations of sphingosine. Platelets were then stimulated with either 5 μM dioctanoylglycerol (added as an ethanol solution with the final concentration of ethanol 0.5%), 10 μM TPA, or 1 unit/ml thrombin. The reactions were stopped after 30 seconds by the addition of an equal volume of 2× sample buffer, and the samples were then boiled for 3 minutes. […] Gels were subsequently fixed in water/methanol/acetic acid (60:30:10), dried, and autoradiographed.
# HL-60 cells [7] = assay: Morphology and marker enzymes (ANA esterase, acid phosphatase) of HL-60 cells on day 3; type: cell-based, human; conditions: 8 nM PMA, 0 μM sphinganine, 3 days
# Text: Expression of most other signs of HL-60 cell differentiation requires longer time periods after treatment with PMA. For these experiments, the cells were examined on day 3 for adherence and acid phosphatase activity (Table IV) and morphology and the marker enzymes alpha-naptholacetate (ANA) esterase and acid phosphatase (Table V).
# HL-60 cells [8] = assay: HL-60 cell growth and viability; type: cell-based, human; conditions: Homo sapiens, HL-60, 24 h, read-out: inhibition of growth of HL-60 cells
# Procedure: (§3) The HL-60 cells (obtained from the American Type Culture Collection, ATCC CCL240) were grown at 37° as a suspension culture in 175 cm^2 Nunc tissue culture flasks (Vangard International, Neptune, N.J.). The cells were subcultured at a density of 0.25×10^6 cells/ml and used between passage numbers 30 and 40.
# as §1
# [9] = HL-60 cell growth and viability; type: cell-based, human; conditions: human, hl-60 cells, 8 nM PMA, 24 h
# Procedure: as §3, §1
# human neutrophils [10] = assay: [32P]-phosphate incorporation into TCA-precipitable material of neutrophils; type: cell-based; conditions: PMA (1 μM)
# Procedure: Neutrophils (1.4×10^8 cells) were preincubated in with 0.5 mCi Na2 H^32 PO4 in buffer containing […] NaCl, 5.56 mM glucose, 10 mM Hepes, and 0.33 mM CaCl2 for a total of 1 hr at 37° C. in a shaking waterbath. Excess unbound counts were removed by centrifugation and resuspension, repeated five times. The cells were then divided into 4 treatment groups (see RESULTS below) containing approximately 3.5×10^7 cells each. All groups were incubated at 37° C. in a shaking waterbath for the same total time. Some samples were incubated 10 min. with sphinganine (40 μM) prior to addition of 1 μM PMA (final concentration), with which they were incubated for an additional 15 min. The reaction was stopped by addition of an equal volume of boiling SDS dissociation buffer (9% SDS, 1% mercaptoethanol, 15% glycerol, 30 mM Tris, pH 7.8). The samples were run on a 12% SDS-polyacrylamide gel using the method of Rudolph and Krueger (Adv. Cyclic Nucleotide Res. 101, 107-133, 1979). The gels were dried using a Bio-Rad model 2400 Gel Slab Dryer. Autoradiography was performed on the dried gels using Kodak X-omat X-ray film and Dupont Cronex intensifying screens. The gels were exposed for 12 hrs at -70° C.
# Alternatively, neutrophils were preincubated as described above using 0.1 mCi of ^32 P labeled phosphate. The cells were broken by 5 min. of sonication using an Ultramet III waterbath sonicator, and 5% (final concentration) trichloroacetic acid was added to each sample. […] The precipitate was filtered and washed extensively using an Amicon filtration system and counted using a Beckman LS7000 scintillation counter.
# HL-60 cells [11] = assay: Acid phosphatase activities of suspended and attached HL-60 cells; type: cell-based, human; conditions: 8 nM PMA, 0 μM sphinganine
# Procedure: as §1
# protein kinase C [12] = assay: Phorbol-dibutyrate binding to protein kinase C, mixed micellar assay (Table VI); conditions: Triton X-100 mixed micelles, 20 mol % phosphatidylserine
# Procedure: as §2
# human neutrophils [13] = conditions: cited from earlier work
compound,measurement,setting,value
Ceramide,displacement of [3H]-phorbol dibutyrate,[1],18%
same,IC50,human neutrophils [2],> 100 µM
same,inhibition of PMA-induced attachment,HL-60 cells [3]; 8 nM PMA,not inhibitory
same,inhibition of protein kinase C (specificity),protein kinase C [4],did not activate or inhibit
same,inhibition of protein kinase C (specificity),protein kinase C [4]; listed as ceramide,without effect; also recorded: not to be inhibitors
CCCCCCCCCCCCC/C=C/[C@@H](O)[C@H](CO[C@@H]1O[C@H](CO)[C@H](O)[C@H](O)[C@H]1O)NC(C)=O [reference compound],inhibition of protein kinase C activity,protein kinase C [5],None of these N-acetyl derivatives inhibited
same,effect on 40 kDa phosphorylation in platelets,[6],did not affect
"CCCCCCCCCCCCCC(=O)O[C@@H]1[C@@H](C)[C@@]2(O)[C@@H](C=C(CO)C[C@]3(O)C(=O)C(C)=C[C@@H]23)[C@@H]2C(C)(C)[C@]12OC(C)=O [PMA, Phorbol 12-myristate 13-acetate, reference compound]",Acid phosphatase,HL-60 cells [7]; adherent cells,0.60 nmol/h/105 cells
same,Acid phosphatase,HL-60 cells [7]; suspended cells,0.30 nmol/h/105 cells
same,inhibition at 0.008 µM,HL-60 cells [8],70%
same,"viability at 24 h, 0.008 µM","[9]; 0 μM sphinganine, read-out: Percent viability of suspended cells",60%
same,"viability at 24 h, 0.008 µM",[9]; read-out: % Viability,80%
same,[32P]-phosphate incorporation into TCA-precipitable material,human neutrophils [10],4912 COUNTS PER MINUTE
same,"RATE of oxygen consumption, NO SPHINGANINE",human neutrophils [2]; activator alone,4.3 nmols O2 consumed/min/10^6 cells
same,number of adherent cells,"HL-60 cells [3]; 8 nM PMA alone, 24 h",0.76 ×10^5
same,Adherent cells (%),"HL-60 cells [3]; 8 nM PMA, 0 μM sphinganine, 72 h",96%
same,% Adherence,"HL-60 cells [3]; 8 nM PMA, 24 h",61% and 61.3 ± 1.0%
same,"Acid phosphatase activity, Adherent",HL-60 cells [11]; 24 h,0.52 ± 0.01 nmol/h/dish
same,"Acid phosphatase activity, Suspended",HL-60 cells [11]; 24 h,0.11 ± 0.05 nmol/h/dish
same,Adherence (% of total),HL-60 cells [11]; 24 h,83 % of total
same,"Acid phosphatase activity, Adherent",HL-60 cells [11]; 72 h,2.20 ± 0.09 nmol/h/dish
same,"Acid phosphatase activity, Adherent (%)",HL-60 cells [11]; 72 h,98%
same,"Acid phosphatase activity, Suspended",HL-60 cells [11]; 72 h,0.05 ± 0.01 nmol/h/dish
sphingomyelin [reference compound],inhibition of protein kinase C activity,protein kinase C [5],None of the parent compounds inhibited
CCCCCCCCCCCCC/C=C/[C@@H](O)[C@@H](N)CO[C@@H]1O[C@H](CO)[C@@H](O[C@@H]2O[C@H](CO)[C@H](O[C@H]3O[C@H](CO)[C@H](O)[C@H](O)[C@H]3O)[C@H](O)[C@H]2O)[C@H](O)[C@H]1O [globotriosylsphingosine],"Inhibition of Protein Kinase C, concentration giving 50% inhibition, (mol %)",protein kinase C [5],4.2 mol %
same,IC50,protein kinase C [5],180 µM
CCCCCCCCCCCCC/C=C/[C@@H](O)[C@@H](N)COP(=O)([O-])OCC[N+](C)(C)C [sphingosylphosphorylcholine],"Inhibition of Protein Kinase C, concentration giving 50% inhibition, (mol %)",protein kinase C [5],2.8 mol %
same,IC50,protein kinase C [5],120 µM
same,"Inhibition of [3H]PDBu Binding to Protein Kinase, (mol %)",protein kinase C [12],11.6 mol %
same,IC50,protein kinase C [12]; read-out: Inhibition of [3H]PDBu Binding to Protein Kinase,500 µM
NCCNS(=O)(=O)c1cccc2cnccc12 [H-9],inhibition of the respiratory burst in human neutrophils,human neutrophils [13],incapable of inhibiting
CC1CNCCN1S(=O)(=O)c1cccc2cnccc12 (stereo not drawn) [H-7],inhibition of the respiratory burst in human neutrophils,human neutrophils [13],incapable of inhibiting
"CCCCCCCCCCCCCCCC(=O)O [Palmitic acid, reference compound]",displacement of [3H]-phorbol dibutyrate,[1],3%
same,IC50,"human neutrophils [2]; Homo sapiens, Neutrophil",> 100 µM
CCCCCCCCCCCCC/C=C/[C@@H](O)[C@H](COP(=O)([O-])OCC[N+](C)(C)C)NC(C)=O [reference compound],inhibition of protein kinase C activity,protein kinase C [5],None of these N-acetyl derivatives inhibited
same,effect on 40 kDa phosphorylation in platelets,[6],did not affect
